Laboratory results: PMC10997755, “Discovery of a small-molecule inhibitor that traps Polθ on DNA and synergizes with PARP inhibitors” (Nature Communications, 2024)
“And” between values parts separate entries of the source, which are not always exact repeats. Identical values can stand only once.

How the values were obtained:
[1] = system: BRCA2-NULL cells; experiment: Clonogenic assay (number of colonies counted); assay type: cell-based; conditions: three replicates
Description: Supplement 41467_2024_46593_MOESM7_ESM.xlsx, sheet "Supplem 1 b" | column: BRCA2-NULL

[2] = target: T1, Pol Eta (Homo sapiens, UniProt Q9Y253); experiment: Primer extension by recombinant Pols (selectivity); assay type: biochemical
T1 sequence (Q9Y253 1-713): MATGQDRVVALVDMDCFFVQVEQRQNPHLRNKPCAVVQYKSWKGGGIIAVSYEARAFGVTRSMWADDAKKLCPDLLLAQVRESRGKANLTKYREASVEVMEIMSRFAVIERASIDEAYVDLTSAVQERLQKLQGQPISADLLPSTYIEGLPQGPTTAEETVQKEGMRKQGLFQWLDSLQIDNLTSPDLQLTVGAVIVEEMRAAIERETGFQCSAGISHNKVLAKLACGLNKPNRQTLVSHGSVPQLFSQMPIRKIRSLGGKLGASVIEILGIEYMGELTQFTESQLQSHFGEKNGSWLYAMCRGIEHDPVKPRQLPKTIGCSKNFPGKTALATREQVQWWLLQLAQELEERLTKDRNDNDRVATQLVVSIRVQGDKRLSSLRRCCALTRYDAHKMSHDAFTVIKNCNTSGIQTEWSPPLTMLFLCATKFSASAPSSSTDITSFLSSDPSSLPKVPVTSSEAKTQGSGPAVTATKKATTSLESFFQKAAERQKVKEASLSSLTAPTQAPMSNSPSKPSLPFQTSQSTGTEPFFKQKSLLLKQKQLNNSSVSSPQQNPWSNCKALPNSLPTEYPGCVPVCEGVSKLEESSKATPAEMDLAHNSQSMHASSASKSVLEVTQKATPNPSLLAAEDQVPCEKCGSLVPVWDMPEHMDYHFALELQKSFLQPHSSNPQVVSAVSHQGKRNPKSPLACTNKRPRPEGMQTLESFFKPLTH

[3] = system: HCT116 BRCA2 -/- cells; experiment: Clonogenic assay; assay type: cell-based; conditions: for Average number of colonies counted / Normalized colonies (% normalized to control): per experiment
Procedure, shortened: (§1)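 Cells seeded at low density (300–1000 per well, by plate size and genotype), medium changed every 2 days, colonies grown 10–12 days. Fixed in water:ethanol:acetic acid, stained with 0.5% crystal violet, then counted; IC50 from ≥3 independent experiments, mean ± SEM.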

[4] = system: PE01 ovarian cancer cells; experiment: Clonogenic assay; assay type: cell-based; conditions: clonogenic survival
Procedure, shortened: as §1

[5] = system: CAPAN-1 cells; experiment: Clonogenic assay; assay type: cell-based; conditions: for percent suvival: Capan-1 cells
Procedure, shortened: as §1

[6] = system: MDA-MB-231 cells; experiment: Clonogenic assay; assay type: cell-based; conditions: for percent suvival: Fig. 2f
Procedure, shortened: as §1

[7] = Colony survival, ola with or without RTX-161 (source data sheet Fig. 2 c; cell line not given); assay type: cell-based

Structure (SMILES): CN(C(=O)Oc1ccc(C(F)(F)F)cc1C(F)(F)F)c1ccc(F)cc1 [MC160385]
- number of olonies counted ([1]; MC160385 2.5 μM): 67 and 60 and 64
- number of olonies counted ([1]; MC160385 5 μM): 56 and 64 and 62
- number of olonies counted ([1]; MC160385 10 μM): 57 and 62 and 60
- number of olonies counted ([1]; MC160385 20 μM): 59 and 56 and 58

Structure (SMILES): CN(C(=O)Oc1c(N2CCN(CCO)C2=O)cc(C(F)(F)F)cc1C(F)(F)F)c1ccc(F)cc1 [RTx-161]
- % Full Extension ([2]; Pol Eta): 78.72%
- % Inhibition Compared to Control ([2]; Pol Eta): -2.54%
- % Relative Maximum Extension ([2]; Pol Eta): 102.54%
- inhibition of primer extension ([2]; selectivity panel, Pol named in Supplementary Fig. 1h): no inhibition
- IC50 ([3]; Homo sapiens, HCT-116, HCT116 cells, label beside BRCA2-null curve, read-out: IC50 clonogenic survival): ~1 µM
- Normalized colonies, pooled Average of 3 experiments ([3]; RTX-161 0.5 micro M): 92.0788%
- Average number of colonies counted ([3]; RTX-161 0.5 micro M): 70 and 37.3333 and 38
- Normalized colonies (% normalized to control) ([3]; RTX-161 0.5 micro M): 74.7331% and 113.131% and 88.3721%
- Normalized colonies, pooled Average of 3 experiments ([3]; RTX-161 1 micro M): 62.4064%
- Average number of colonies counted ([3]; RTX-161 1 micro M): 46.6667 and 26.6667 and 24.3333
- Normalized colonies (% normalized to control) ([3]; RTX-161 1 micro M): 49.8221% and 80.8081% and 56.5891%
- Normalized colonies, pooled Average of 3 experiments ([3]; RTX-161 2 micro M): 32.1189%
- Normalized colonies (% normalized to control) ([3]; RTX-161 2 micro M): 33.0961% and 35.3535% and 27.907%
- Normalized colonies, pooled Average of 3 experiments ([3]; RTX-161 4 micro M): 16.8132%
- Normalized colonies, pooled Average of 3 experiments ([3]; RTX-161 8 micro M): 8.53%
- combination with Rucaparib ([3]; clonogenic survival): strong synergistic activity
- combination with Olaparib ([3]; clonogenic survival, Combenefit synergy): strong synergistic activity
- selective killing of BRCA2-null HCT116 cells ([3]; colony survival, versus BRCA2-WT): selective killing
- combination with Olaparib [4]: strongly potentiated the effects of Olaparib
- single agent activity [4]: little to no activity as a single agent
- percent suvival ([5]; RTX-161 2 micro M + ola 0.041 micro M, experiment block 1 (c0-c9)): 16.0976%
- percent suvival ([5]; RTX-161 2 micro M + ola 0.041 micro M, experiment block 2 (c10-c19)): 65.2438%
- percent suvival ([5]; RTX-161 2 micro M + ola 0.041 micro M, experiment block 3 (c20-c29)): 82.5985%
- percent suvival ([5]; RTX-161 2 micro M + ola 0.123 micro M, experiment block 1 (c0-c9)): 6.496%
- percent suvival ([5]; RTX-161 2 micro M + ola 0.123 micro M, experiment block 2 (c10-c19)): 35.6906%
- percent suvival ([5]; RTX-161 2 micro M + ola 0.123 micro M, experiment block 3 (c20-c29)): 71.0728%
- percent suvival ([5]; RTX-161 2 micro M + ola 0.37 micro M, experiment block 1 (c0-c9)): 4.656%
- percent suvival ([5]; RTX-161 2 micro M + ola 0.37 micro M, experiment block 2 (c10-c19)): 25.2846%
- percent suvival ([5]; RTX-161 2 micro M + ola 0.37 micro M, experiment block 3 (c20-c29)): 54.8012%
- percent suvival ([5]; RTX-161 2 micro M + ola 1.11 micro M, experiment block 1 (c0-c9)): 3.463%
- percent suvival ([5]; RTX-161 2 micro M + ola 1.11 micro M, experiment block 2 (c10-c19)): 19.041%
- percent suvival ([5]; RTX-161 2 micro M + ola 1.11 micro M, experiment block 3 (c20-c29)): 23.1621%
- percent suvival ([5]; RTX-161 2 micro M, ola 0.00 micro M, experiment block 1 (c0-c9)): 102.855%
- percent suvival ([5]; RTX-161 2 micro M, ola 0.00 micro M, experiment block 2 (c10-c19)): 79.1879%
- percent suvival ([5]; RTX-161 2 micro M, ola 0.00 micro M, experiment block 3 (c20-c29)): 91.4122%
- percent suvival ([5]; RTX-161 6 micro M + ola 0.041 micro M, experiment block 1 (c0-c9)): 15.5586%
- percent suvival ([5]; RTX-161 6 micro M + ola 0.041 micro M, experiment block 2 (c10-c19)): 45.4723%
- percent suvival ([5]; RTX-161 6 micro M + ola 0.041 micro M, experiment block 3 (c20-c29)): 68.5869%
- percent suvival ([5]; RTX-161 6 micro M + ola 0.123 micro M, experiment block 1 (c0-c9)): 6.432%
- percent suvival ([5]; RTX-161 6 micro M + ola 0.123 micro M, experiment block 2 (c10-c19)): 32.777%
- percent suvival ([5]; RTX-161 6 micro M + ola 0.123 micro M, experiment block 3 (c20-c29)): 59.0951%
- percent suvival ([5]; RTX-161 6 micro M + ola 0.37 micro M, experiment block 1 (c0-c9)): 6.745%
- percent suvival ([5]; RTX-161 6 micro M + ola 0.37 micro M, experiment block 2 (c10-c19)): 21.1222%
- percent suvival ([5]; RTX-161 6 micro M + ola 0.37 micro M, experiment block 3 (c20-c29)): 41.2416%
- percent suvival ([5]; RTX-161 6 micro M + ola 1.11 micro M, experiment block 1 (c0-c9)): 6.364%
- percent suvival ([5]; RTX-161 6 micro M + ola 1.11 micro M, experiment block 2 (c10-c19)): 17.1679%
- percent suvival ([5]; RTX-161 6 micro M + ola 1.11 micro M, experiment block 3 (c20-c29)): 14.1224%
- percent suvival ([5]; RTX-161 6 micro M, ola 0.00 micro M, experiment block 1 (c0-c9)): 109.215%
- percent suvival ([5]; RTX-161 6 micro M, ola 0.00 micro M, experiment block 2 (c10-c19)): 55.8784%
- percent suvival ([5]; RTX-161 6 micro M, ola 0.00 micro M, experiment block 3 (c20-c29)): 75.1407%
- percent suvival ([5]; RTX-161 18 micro M + ola 0.041 micro M, experiment block 1 (c0-c9)): 10.9588%
- percent suvival ([5]; RTX-161 18 micro M + ola 0.123 micro M, experiment block 1 (c0-c9)): 6.3155%
- percent suvival ([5]; RTX-161 18 micro M + ola 0.37 micro M, experiment block 1 (c0-c9)): 7.064%
- percent suvival ([5]; RTX-161 18 micro M + ola 1.11 micro M, experiment block 1 (c0-c9)): 6.846%
- percent suvival ([5]; RTX-161 18 micro M, ola 0.00 micro M, experiment block 1 (c0-c9)): 83.7737%
- combination with Olaparib ([5]; clonogenic survival): significantly reduced cellular resistance to Olaparib
- percent suvival ([6]; Rtx-161 5 microM + Talazoparib 12.5 nano M, experiment block 1 (c0-c7)): 68.1979%
- percent suvival ([6]; Rtx-161 5 microM + Talazoparib 12.5 nano M, experiment block 2 (c8-c15)): 63.9241%
- percent suvival ([6]; Rtx-161 5 microM + Talazoparib 12.5 nano M, experiment block 3 (c16-c23)): 59.2391%
- percent suvival ([6]; Rtx-161 5 microM + Talazoparib 25 nano M, experiment block 1 (c0-c7)): 45.2297%
- percent suvival ([6]; Rtx-161 5 microM + Talazoparib 25 nano M, experiment block 2 (c8-c15)): 50%
- percent suvival ([6]; Rtx-161 5 microM + Talazoparib 25 nano M, experiment block 3 (c16-c23)): 34.2391%
- percent suvival ([6]; Rtx-161 5 microM + Talazoparib 50 nano M, experiment block 1 (c0-c7)): 12.7208%
- percent suvival ([6]; Rtx-161 5 microM + Talazoparib 50 nano M, experiment block 2 (c8-c15)): 18.9873%
- percent suvival ([6]; Rtx-161 5 microM + Talazoparib 50 nano M, experiment block 3 (c16-c23)): 15.7609%
- percent suvival ([6]; Rtx-161 5 microM, Talazoparib 0 nano M, experiment block 1 (c0-c7)): 93.6396%
- percent suvival ([6]; Rtx-161 5 microM, Talazoparib 0 nano M, experiment block 2 (c8-c15)): 98.7342%
- percent suvival ([6]; Rtx-161 5 microM, Talazoparib 0 nano M, experiment block 3 (c16-c23)): 88.587%
- combination with Talazoparib ([6]; clonogenic survival, HR-proficient cells): modestly potentiated the effects of Talazoparib
- percent suvival ([7]; RTX-161 1 uM + ola 0.125 um): 37.2624% and 27.7457% and 32.5843%
- percent suvival ([7]; RTX-161 1 uM + ola 0.25 um): 11.4068% and 11.5607% and 13.4831%
- percent suvival ([7]; RTX-161 1 uM, ola 0 um): 93.9163% and 101.156% and 103.371%
- percent suvival ([7]; RTX-161 2 uM, ola 0 um): 93.5361% and 104.624% and 106.742%
